System: plasma ammonia
Test: Retrospective review of NAGS deficiency patients: plasma ammonia levels
Format: in vivo, human
Conditions: for Plasma ammonia, Mean (SD) / Plasma ammonia, Median / Plasma ammonia, Range: NAGS deficiency patients
Description: Treatment with carglumic acid was divided in two regimens. For acute treatment, patients received a total daily dose of 100 mg/kg/day to 250 mg/kg/per day primarily administered in 2 to 4 divided doses for the first few days of treatment. For maintenance treatment, the dosage was reduced over time based on plasma ammonia level and clinical responses.
Short-term efficacy was evaluated using mean and median change in plasma ammonia levels from baseline to days 1 to 3. Persistence of efficacy was evaluated using long-term mean and median change in plasma ammonia level.
All 13 patients had abnormal plasma ammonia levels at baseline. […] Long-term efficacy was measured using the last reported plasma ammonia level for each of the 13 patients analyzed (median length of treatment was 6 years; range 1 to 16 years). The mean and median plasma ammonia levels were 23 micromol/L and 24 micromol/L, respectively, after a mean treatment duration of 8 years (Table 5).

[1] = Long-term (mean 8 years), last available value on treatment

NC(=O)N[C@@H](CCC(=O)O)C(=O)O [carglumic acid, N-carbamoyl-L-glutamic acid]
Differences in clinical response between adults and pediatric NAGS deficiency patients (23 NAGS deficiency patients): no apparent differences
Plasma ammonia, Mean (SD) (Day 1 of treatment): 181 (358) micromole/L
Plasma ammonia, Median (Day 1 of treatment): 65 µmol/L
Plasma ammonia, Range (Day 1 of treatment): 25 to 1190 µmol/L
Plasma ammonia, Mean (SD) (Day 2 of treatment): 69 (78) micromole/L
Plasma ammonia, Median (Day 2 of treatment): 44 µmol/L
Plasma ammonia, Range (Day 2 of treatment): 11 to 255 µmol/L
Plasma ammonia, Mean (SD) (Day 3 of treatment): 27 (11) micromole/L
Plasma ammonia, Median (Day 3 of treatment): 25 µmol/L
Plasma ammonia, Range (Day 3 of treatment): 12 to 42 µmol/L
Plasma ammonia, Mean (SD) [1]: 23 µmol/L
Plasma ammonia, Median [1]: 24 µmol/L
Plasma ammonia, Range [1]: 9 to 34 µmol/L
Plasma ammonia, Mean (SD) (Long-term (mean 8 years), last available value on treatment, listed as Carglumic Acid): 23 (7) micromole/L
Plasma ammonia levels by day 3 (patients for whom data were available, normal range 5 to 50 micromol/L): normal plasma ammonia levels were attained
